Test results reported in ChEMBL document CHEMBL1201862, “PubChem BioAssay data set” (2004).
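Five compound concentrations were applied to cells in 96-well plates for 48 hours; endpoints were derived by simple linear interpolation of the resulting dose-response curve. GI50 is the concentration that inhibits growth by half.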 The source made the active and inactive calls. No stated cut-off is given here; in the data, active = GI50 up to about 1.1 µM and inactive = higher.

Experiments:
Assay in all cases: DTP human tumour cell line panel, 48 h
[1] = test system: HCT-15
[2] = test system: K562
[3] = test system: SN12C
[4] = test system: UACC-257
[5] = test system: SW-620
[6] = test system: SK-MEL-28
[7] = test system: RXF 393
[8] = test system: DU-145
[9] = test system: UO-31
[10] = test system: OVCAR-5
[11] = test system: OVCAR-4
[12] = test system: NCI-H460
[13] = test system: KM12
[14] = test system: HCT-116
[15] = test system: CAKI-1
[16] = test system: OVCAR-8
[17] = test system: HOP-62
[18] = test system: OVCAR-3
[19] = test system: NCI-H522

SMILES | GI50 [1] [µM] | GI50 [2] | GI50 [3] | GI50 [4] | GI50 [5] | GI50 [6] | GI50 [7] | GI50 [8] | GI50 [9] | GI50 [10] | GI50 [11] | GI50 [12] | GI50 [13] | GI50 [14] | GI50 [15] | GI50 [16] | GI50 [17] | GI50 [18] | GI50 [19]
c1cc2nnnn2nc1N1CCCC1 | > 100 | > 100 µM (inactive) | > 100 µM (inactive) | > 100 µM (inactive) | > 100 µM (inactive) | > 100 µM (inactive) | > 100 µM (inactive) | > 100 µM (inactive) | > 100 µM (inactive) | > 100 µM (inactive) | > 100 µM (inactive) | > 100 µM (inactive) | > 100 µM (inactive) | > 100 µM (inactive) | > 100 µM (inactive) | > 100 µM (inactive) | – | – | –
CCOC(=O)NC1CC2CCC1(OC)C=C2C (stereo unspecified) | > 100 | > 100 µM (inactive) | > 100 µM (inactive) | > 100 µM (inactive) | > 90.6 µM (inactive) | > 100 µM (inactive) | > 100 µM (inactive) | – | > 100 µM (inactive) | > 100 µM (inactive) | > 100 µM (inactive) | > 100 µM (inactive) | > 100 µM (inactive) | > 100 µM (inactive) | > 53.5 µM (inactive) | > 100 µM (inactive) | > 100 µM (inactive) | > 100 µM (inactive) | > 100 µM (inactive)
C[N+](C)(C)C.FC(F)(F)C1(C(F)(F)F)O[SiH-]2(OC(C(F)(F)F)(C(F)(F)F)c3ccccc32)c2ccccc21 | 10.4 | 5.87 µM (inactive) | 18.1 µM (inactive) | 24.4 µM (inactive) | 18 µM (inactive) | 26.2 µM (inactive) | 13 µM (inactive) | – | 14.6 µM (inactive) | 13.2 µM (inactive) | 6.47 µM (inactive) | 8.97 µM (inactive) | 19.9 µM (inactive) | – | 26.4 µM (inactive) | 15.3 µM (inactive) | – | 18.9 µM (inactive) | 22.1 µM (inactive)
CCNC(C)Cc1ccccc1 (stereo unspecified) | > 100 | > 100 µM (inactive) | > 100 µM (inactive) | > 100 µM (inactive) | > 100 µM (inactive) | > 100 µM (inactive) | > 100 µM (inactive) | – | > 100 µM (inactive) | > 100 µM (inactive) | > 100 µM (inactive) | > 100 µM (inactive) | > 100 µM (inactive) | > 100 µM (inactive) | > 100 µM (inactive) | > 100 µM (inactive) | > 100 µM (inactive) | > 100 µM (inactive) | > 100 µM (inactive)
COc1cc([C@@H]2c3cc4c(cc3[C@@H](NC(=O)c3ccc(C(C)=O)cc3)C3COC(=O)[C@@H]32)OCO4)cc(OC)c1O (stereo partly specified) | 2.46 | 1.48 µM (inactive) | 0.275 µM (active) | 3.88 µM (inactive) | 0.24 µM (active) | 2.98 µM (inactive) | 3.76 µM (inactive) | – | 4.57 µM (inactive) | 0.895 µM (active) | 27.3 µM (inactive) | < 0.01 µM (active) | 1.36 µM (inactive) | 0.52 µM (active) | 1.9 µM (inactive) | 1.35 µM (inactive) | 0.151 µM (active) | 2.38 µM (inactive) | 1.1 µM (active)
CC1=CC(C)(C)N=C2SC(c3ccc(N)cc3)=NN12 | 31.6 | 32.6 µM (inactive) | > 95.9 µM (inactive) | > 94 µM (inactive) | > 41 µM (inactive) | > 100 µM (inactive) | > 100 µM (inactive) | – | 28 µM (inactive) | 49.7 µM (inactive) | > 93.8 µM (inactive) | 52.4 µM (inactive) | > 70.6 µM (inactive) | 41 µM (inactive) | 61.8 µM (inactive) | 55.7 µM (inactive) | > 100 µM (inactive) | 58.2 µM (inactive) | 58.6 µM (inactive)
COC(=O)CC1CN(C(=O)OCc2ccccc2)C(C)(C)O1 (stereo unspecified) | > 100 | > 100 µM (inactive) | > 100 µM (inactive) | > 100 µM (inactive) | > 100 µM (inactive) | 9.06 µM (inactive) | > 100 µM (inactive) | > 100 µM (inactive) | 38.6 µM (inactive) | > 100 µM (inactive) | > 100 µM (inactive) | > 100 µM (inactive) | 43.3 µM (inactive) | > 100 µM (inactive) | > 100 µM (inactive) | > 100 µM (inactive) | – | > 100 µM (inactive) | 5.46 µM (inactive)
O=c1[nH]c2ccsc2c(=O)n1COCc1ccccc1 | > 100 | > 100 µM (inactive) | > 100 µM (inactive) | > 100 µM (inactive) | > 100 µM (inactive) | > 100 µM (inactive) | > 100 µM (inactive) | > 100 µM (inactive) | > 100 µM (inactive) | > 100 µM (inactive) | > 100 µM (inactive) | > 100 µM (inactive) | > 100 µM (inactive) | > 100 µM (inactive) | > 100 µM (inactive) | > 100 µM (inactive) | > 100 µM (inactive) | > 100 µM (inactive) | > 100 µM (inactive)
